In the NIST ThermoML archive (doi:10.1016/j.jct.2003.11.008):

Experiments:
[1] = excess molar enthalpy (molar enthalpy of mixing); xn = mol fraction of the nth substance listed; settings: 318.15 K, 101.3 kPa, Liquid
[2] = xn = mol fraction of the nth substance listed; settings: 318.15 K, 101.3 kPa, Liquid
[3] = refractive index (Na D-line) (dimensionless); settings: 318.15 K; 101.33 kPa; Liquid; Standard Abbe refractometry
[4] = 318.15 K; 101.33 kPa; Liquid; Vibrating tube method

CCCCCCCCCCCCCCCCC [heptadecane] + COC(C)=O
Settings	excess molar enthalpy [kcal/mol]	excess molar volume [m3/mol]
[1], x2 = 0.113	0.176	–
[1], x2 = 0.2193	0.327	–
[1], x2 = 0.3028	0.434	–
[1], x2 = 0.3894	0.521	–
[1], x2 = 0.4626	0.576	–
[1], x2 = 0.5247	0.606	–
[1], x2 = 0.5794	0.615	–
[1], x2 = 0.6278	0.607	–
[1], x2 = 0.6655	0.593	–
[1], x2 = 0.6858	0.582	–
[1], x2 = 0.7195	0.56	–
[1], x2 = 0.7539	0.528	–
[1], x2 = 0.7883	0.489	–
[1], x2 = 0.8246	0.444	–
[1], x2 = 0.861	0.398	–
[1], x2 = 0.8938	0.346	–
[1], x2 = 0.9264	0.29	–
[1], x2 = 0.9502	0.236	–
[1], x2 = 0.9763	0.145	–
[2], x2 = 0.0872	–	4.73e-07
[2], x2 = 0.1719	–	9e-07
[2], x2 = 0.2901	–	1.422e-06
[2], x2 = 0.3832	–	1.742e-06
[2], x2 = 0.4682	–	1.916e-06
[2], x2 = 0.5391	–	1.999e-06
[2], x2 = 0.5988	–	2.022e-06
[2], x2 = 0.6524	–	1.981e-06
[2], x2 = 0.694	–	1.916e-06
[2], x2 = 0.7348	–	1.806e-06
[2], x2 = 0.7632	–	1.698e-06
[2], x2 = 0.8016	–	1.579e-06
[2], x2 = 0.827	–	1.455e-06
[2], x2 = 0.8469	–	1.363e-06
[2], x2 = 0.8704	–	1.246e-06
[2], x2 = 0.9208	–	9.07e-07
[2], x2 = 0.9545	–	5.89e-07
[2], x2 = 0.9807	–	2.74e-07

CCCCCCCCCCCCC [tridecane]
Settings	mass density [kg/m3]	refractive index
[3]	–	1.4155
[4]	738.34	–

CCCCCCCCC [nonane] + COC(C)=O
Settings	excess molar enthalpy [kcal/mol]	excess molar volume [m3/mol]
[1], x2 = 0.0822	0.131	–
[1], x2 = 0.1628	0.241	–
[1], x2 = 0.2353	0.335	–
[1], x2 = 0.2999	0.398	–
[1], x2 = 0.364	0.448	–
[1], x2 = 0.4195	0.481	–
[1], x2 = 0.4714	0.497	–
[1], x2 = 0.5122	0.504	–
[1], x2 = 0.549	0.507	–
[1], x2 = 0.5847	0.506	–
[1], x2 = 0.621	0.502	–
[1], x2 = 0.6618	0.49	–
[1], x2 = 0.7017	0.463	–
[1], x2 = 0.7452	0.433	–
[1], x2 = 0.7891	0.388	–
[1], x2 = 0.8353	0.343	–
[1], x2 = 0.8771	0.289	–
[1], x2 = 0.9219	0.208	–
[1], x2 = 0.9643	0.103	–
[2], x2 = 0.1052	–	6.91e-07
[2], x2 = 0.2035	–	1.199e-06
[2], x2 = 0.2896	–	1.534e-06
[2], x2 = 0.3598	–	1.693e-06
[2], x2 = 0.4249	–	1.805e-06
[2], x2 = 0.4901	–	1.864e-06
[2], x2 = 0.547	–	1.881e-06
[2], x2 = 0.5991	–	1.837e-06
[2], x2 = 0.6418	–	1.774e-06
[2], x2 = 0.6901	–	1.658e-06
[2], x2 = 0.7312	–	1.562e-06
[2], x2 = 0.7687	–	1.431e-06
[2], x2 = 0.7969	–	1.305e-06
[2], x2 = 0.8736	–	9.39e-07
[2], x2 = 0.925	–	6.28e-07
[2], x2 = 0.9663	–	3.07e-07

CCCCCCCCCCCCCCCCC [heptadecane] + CCOC(C)=O
Settings	excess molar enthalpy [kcal/mol]	excess molar volume [m3/mol]
[1], x2 = 0.0911	0.136	–
[1], x2 = 0.1754	0.245	–
[1], x2 = 0.2543	0.345	–
[1], x2 = 0.3274	0.415	–
[1], x2 = 0.394	0.467	–
[1], x2 = 0.4566	0.506	–
[1], x2 = 0.512	0.525	–
[1], x2 = 0.558	0.534	–
[1], x2 = 0.6007	0.531	–
[1], x2 = 0.634	0.523	–
[1], x2 = 0.6486	0.519	–
[1], x2 = 0.6818	0.504	–
[1], x2 = 0.7172	0.485	–
[1], x2 = 0.7538	0.463	–
[1], x2 = 0.7913	0.426	–
[1], x2 = 0.8271	0.392	–
[1], x2 = 0.8653	0.342	–
[1], x2 = 0.9018	0.287	–
[1], x2 = 0.9382	0.22	–
[1], x2 = 0.9719	0.121	–
[2], x2 = 0.1461	–	6.4e-07
[2], x2 = 0.2562	–	1.04e-06
[2], x2 = 0.3512	–	1.284e-06
[2], x2 = 0.4324	–	1.449e-06
[2], x2 = 0.5057	–	1.538e-06
[2], x2 = 0.5143	–	1.548e-06
[2], x2 = 0.5756	–	1.565e-06
[2], x2 = 0.5814	–	1.562e-06
[2], x2 = 0.6778	–	1.503e-06
[2], x2 = 0.7269	–	1.41e-06
[2], x2 = 0.7898	–	1.273e-06
[2], x2 = 0.8421	–	1.081e-06
[2], x2 = 0.903	–	7.83e-07
[2], x2 = 0.9457	–	5.1e-07
[2], x2 = 0.9685	–	3.18e-07

CCCCCOC(C)=O [pentyl ethanoate] + CCCCCCCCC
Settings	excess molar enthalpy [kcal/mol]	excess molar volume [m3/mol]
[1], x1 = 0.0676	0.0718	–
[1], x1 = 0.1364	0.126	–
[1], x1 = 0.2097	0.173	–
[1], x1 = 0.2818	0.207	–
[1], x1 = 0.3491	0.228	–
[1], x1 = 0.4124	0.239	–
[1], x1 = 0.4692	0.243	–
[1], x1 = 0.5191	0.239	–
[1], x1 = 0.5639	0.232	–
[1], x1 = 0.621	0.216	–
[1], x1 = 0.6739	0.202	–
[1], x1 = 0.7288	0.181	–
[1], x1 = 0.7858	0.154	–
[1], x1 = 0.8432	0.12	–
[1], x1 = 0.8986	0.0826	–
[1], x1 = 0.9529	0.0421	–
[2], x1 = 0.0672	–	1.52e-07
[2], x1 = 0.1243	–	2.83e-07
[2], x1 = 0.1813	–	4.14e-07
[2], x1 = 0.2354	–	5.13e-07
[2], x1 = 0.3037	–	5.97e-07
[2], x1 = 0.3405	–	6.3e-07
[2], x1 = 0.3995	–	6.66e-07
[2], x1 = 0.4479	–	6.75e-07
[2], x1 = 0.5035	–	6.77e-07
[2], x1 = 0.5492	–	6.64e-07
[2], x1 = 0.6071	–	6.24e-07
[2], x1 = 0.6461	–	5.91e-07
[2], x1 = 0.685	–	5.48e-07
[2], x1 = 0.7852	–	4.49e-07
[2], x1 = 0.8739	–	3.42e-07
[2], x1 = 0.9451	–	2.1e-07

CCCCCOC(C)=O [pentyl ethanoate] + CCCCCCCCCCC
Settings	excess molar enthalpy [kcal/mol]	excess molar volume [m3/mol]
[1], x1 = 0.083	0.0857	–
[1], x1 = 0.1513	0.138	–
[1], x1 = 0.225	0.185	–
[1], x1 = 0.2965	0.221	–
[1], x1 = 0.3642	0.246	–
[1], x1 = 0.4271	0.259	–
[1], x1 = 0.4836	0.264	–
[1], x1 = 0.5356	0.262	–
[1], x1 = 0.5749	0.254	–
[1], x1 = 0.6055	0.246	–
[1], x1 = 0.6529	0.23	–
[1], x1 = 0.7058	0.209	–
[1], x1 = 0.7614	0.182	–
[1], x1 = 0.8186	0.15	–
[1], x1 = 0.8782	0.108	–
[1], x1 = 0.9384	0.0617	–
[2], x1 = 0.0737	–	2.57e-07
[2], x1 = 0.1355	–	4.05e-07
[2], x1 = 0.2015	–	5.38e-07
[2], x1 = 0.2641	–	6.43e-07
[2], x1 = 0.3197	–	7.07e-07
[2], x1 = 0.3776	–	7.48e-07
[2], x1 = 0.4395	–	7.8e-07
[2], x1 = 0.4861	–	7.92e-07
[2], x1 = 0.5386	–	7.87e-07
[2], x1 = 0.5852	–	7.75e-07
[2], x1 = 0.6345	–	7.38e-07
[2], x1 = 0.6828	–	6.92e-07
[2], x1 = 0.713	–	6.43e-07
[2], x1 = 0.8089	–	4.89e-07
[2], x1 = 0.8864	–	3.26e-07
[2], x1 = 0.9483	–	1.64e-07

CCCCCCCCCCCCCCC [pentadecane] + CCCCOC(C)=O
Settings	excess molar enthalpy [kcal/mol]	excess molar volume [m3/mol]
[1], x2 = 0.0884	0.0988	–
[1], x2 = 0.1775	0.179	–
[1], x2 = 0.2593	0.249	–
[1], x2 = 0.3266	0.29	–
[1], x2 = 0.3936	0.322	–
[1], x2 = 0.4468	0.341	–
[1], x2 = 0.4996	0.353	–
[1], x2 = 0.5472	0.356	–
[1], x2 = 0.5896	0.353	–
[1], x2 = 0.6217	0.345	–
[1], x2 = 0.6332	0.341	–
[1], x2 = 0.6756	0.322	–
[1], x2 = 0.7198	0.298	–
[1], x2 = 0.7661	0.269	–
[1], x2 = 0.8132	0.232	–
[1], x2 = 0.8631	0.187	–
[1], x2 = 0.9114	0.132	–
[1], x2 = 0.9607	0.0673	–
[2], x2 = 0.1004	–	3.55e-07
[2], x2 = 0.1982	–	6.25e-07
[2], x2 = 0.2765	–	7.99e-07
[2], x2 = 0.3418	–	9.17e-07
[2], x2 = 0.417	–	9.97e-07
[2], x2 = 0.4757	–	1.034e-06
[2], x2 = 0.5299	–	1.057e-06
[2], x2 = 0.5843	–	1.052e-06
[2], x2 = 0.6319	–	1.024e-06
[2], x2 = 0.6767	–	9.8e-07
[2], x2 = 0.7173	–	9.26e-07
[2], x2 = 0.7606	–	8.62e-07
[2], x2 = 0.7836	–	8.17e-07
[2], x2 = 0.8619	–	5.97e-07
[2], x2 = 0.9208	–	3.91e-07
[2], x2 = 0.9647	–	1.72e-07
